Test results taken from ChEMBL document CHEMBL1145880, “Aryl piperazine melanocortin MC4 receptor agonists” (Bioorg Med Chem Lett, 2003).
Values belong to the compound of their own block, whether it stands above or below them.

Assays:
[1] = target: T1, Melanocortin receptor 4 (Homo sapiens, UniProt P32245); test: cAMP accumulation in HEK cells transfected with human melanocortin 4 receptor (hMC4R) with respect to alpha-MSH; assay type: functional, cell-based; conditions: HEK293
[2] = target: T1, Melanocortin receptor 4; test: Agonistic activity measured as […] cAMP accumulation in HEK cells expressing human Melanocortin 4 receptor (hMC4R); assay type: functional, cell-based, HEK293
[3] = target: T1, Melanocortin receptor 4; test: cAMP accumulation in HEK cells transfected with human Melanocortin 4 receptor (hMC4R) with respect to alpha-MSH; assay type: functional, cell-based; conditions: HEK293
[4] = target: Adrenocorticotropic hormone receptor (Mus musculus, UniProt Q64326); test: In vitro cAMP accumulation in Y1 cells transfected with mouse Melanocortin 2 receptor (mMC2R); assay type: functional, cell-based
[5] = target: Melanocortin receptor 4 (Mus musculus, UniProt P56450); test: In vitro cAMP accumulation in Y1 cells transfected with mouse Melanocortin 4 receptor (mMC4R); assay type: functional, cell-based
[6] = target: Melanocortin receptor 5 (Homo sapiens, UniProt P33032); test: In vitro cAMP accumulation in HEK cells transfected with human Melanocortin 5 receptor (hMC5R); assay type: functional, cell-based, HEK293
[7] = target: Melanocyte-stimulating hormone receptor (Homo sapiens, UniProt Q01726); test: In vitro cAMP accumulation in HEK cells transfected with human Melanocortin 1 receptor (hMC1R); assay type: functional, cell-based, HEK293
[8] = target: Melanocortin receptor 3 (Homo sapiens, UniProt P41968); test: In vitro cAMP accumulation in HEK cells transfected with human Melanocortin 3 receptor (hMC3R); assay type: functional, cell-based, HEK293
Melanocortin receptor 3, sequence (P41968 whole entry): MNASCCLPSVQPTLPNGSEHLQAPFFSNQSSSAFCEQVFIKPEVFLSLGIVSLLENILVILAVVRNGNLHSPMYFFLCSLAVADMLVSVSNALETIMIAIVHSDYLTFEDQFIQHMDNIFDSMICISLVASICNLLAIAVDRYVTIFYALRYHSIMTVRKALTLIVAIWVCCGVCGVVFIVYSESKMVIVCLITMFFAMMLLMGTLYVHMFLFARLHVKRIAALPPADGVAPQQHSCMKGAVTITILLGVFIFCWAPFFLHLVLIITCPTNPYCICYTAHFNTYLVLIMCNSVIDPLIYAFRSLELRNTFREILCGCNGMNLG

T1 sequence (P32245 whole entry): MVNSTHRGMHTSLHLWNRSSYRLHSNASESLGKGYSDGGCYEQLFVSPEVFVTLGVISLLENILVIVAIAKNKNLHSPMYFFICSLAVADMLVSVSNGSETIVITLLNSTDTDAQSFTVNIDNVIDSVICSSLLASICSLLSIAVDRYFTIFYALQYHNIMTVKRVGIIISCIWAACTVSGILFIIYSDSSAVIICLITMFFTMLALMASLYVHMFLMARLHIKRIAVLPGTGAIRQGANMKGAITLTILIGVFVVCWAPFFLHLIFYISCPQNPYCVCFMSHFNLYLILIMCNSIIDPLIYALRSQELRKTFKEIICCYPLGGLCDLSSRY
Melanocortin receptor 4 (Mus musculus, UniProt P56450), sequence (P56450 whole entry): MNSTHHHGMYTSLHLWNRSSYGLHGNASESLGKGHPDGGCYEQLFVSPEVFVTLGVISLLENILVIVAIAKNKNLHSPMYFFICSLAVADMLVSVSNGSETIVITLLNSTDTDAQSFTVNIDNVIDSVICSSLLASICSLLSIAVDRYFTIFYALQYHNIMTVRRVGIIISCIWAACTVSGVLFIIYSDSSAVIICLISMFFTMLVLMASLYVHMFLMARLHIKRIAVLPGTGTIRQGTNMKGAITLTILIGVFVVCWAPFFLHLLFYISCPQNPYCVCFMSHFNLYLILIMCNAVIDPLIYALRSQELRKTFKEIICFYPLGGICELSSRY
Adrenocorticotropic hormone receptor, sequence (Q64326 whole entry): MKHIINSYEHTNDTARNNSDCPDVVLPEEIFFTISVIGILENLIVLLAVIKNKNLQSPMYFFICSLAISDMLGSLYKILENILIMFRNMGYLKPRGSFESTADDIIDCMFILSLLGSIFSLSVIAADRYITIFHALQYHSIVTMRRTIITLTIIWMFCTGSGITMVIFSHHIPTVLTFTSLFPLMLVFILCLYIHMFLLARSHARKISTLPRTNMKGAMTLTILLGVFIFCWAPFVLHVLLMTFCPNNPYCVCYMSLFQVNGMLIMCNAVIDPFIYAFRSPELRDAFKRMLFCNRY
Melanocortin receptor 5, sequence (P33032 whole entry): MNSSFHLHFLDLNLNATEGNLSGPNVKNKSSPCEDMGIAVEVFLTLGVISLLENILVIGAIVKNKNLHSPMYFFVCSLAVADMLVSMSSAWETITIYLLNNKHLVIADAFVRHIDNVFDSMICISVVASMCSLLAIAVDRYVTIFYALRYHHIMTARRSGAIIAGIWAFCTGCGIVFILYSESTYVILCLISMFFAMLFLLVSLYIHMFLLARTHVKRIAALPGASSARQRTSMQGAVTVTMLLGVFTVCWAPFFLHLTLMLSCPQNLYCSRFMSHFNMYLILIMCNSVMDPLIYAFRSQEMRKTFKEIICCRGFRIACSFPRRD
Melanocyte-stimulating hormone receptor, sequence (Q01726 whole entry): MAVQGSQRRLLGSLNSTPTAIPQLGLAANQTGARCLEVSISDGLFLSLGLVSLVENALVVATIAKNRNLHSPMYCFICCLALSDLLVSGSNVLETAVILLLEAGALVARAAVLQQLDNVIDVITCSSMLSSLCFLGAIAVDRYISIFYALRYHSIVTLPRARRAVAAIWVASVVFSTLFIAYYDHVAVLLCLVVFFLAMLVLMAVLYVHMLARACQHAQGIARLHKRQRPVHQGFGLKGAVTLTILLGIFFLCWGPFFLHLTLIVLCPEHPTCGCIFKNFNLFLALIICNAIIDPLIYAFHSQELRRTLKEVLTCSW

Compound: CC(C)(C)CN(Cc1ccccc1N1CCN(C(=O)[C@@H](Cc2ccc(Cl)cc2)NC(=O)[C@H]2Cc3ccccc3CN2)CC1)S(C)(=O)=O
- Stimulation [1]: 100%
- EC50 [2]: 2400 nM

Compound: O=C(Nc1ccccc1N1CCN(C(=O)[C@@H](Cc2ccc(Cl)cc2)NC(=O)[C@H]2Cc3ccccc3CN2)CC1)c1ccncc1
- Fold stimulation [3]: 30%

Compound: O=C(Nc1ccccc1N1CCN(C(=O)[C@@H](Cc2ccc(Cl)cc2)NC(=O)[C@H]2Cc3ccccc3CN2)CC1)C1CC1
- Fold stimulation [3]: 21%

Compound: CCC(CC)N(Cc1ccccc1N1CCN(C(=O)[C@@H](Cc2ccc(Cl)cc2)NC(=O)[C@H]2Cc3ccccc3CN2)CC1)S(C)(=O)=O
- Stimulation [1]: 100%
- EC50 [2]: 2200 nM

Compound: CCOC(=O)CNC(=O)Nc1ccccc1N1CCN(C(=O)[C@@H](Cc2ccc(Cl)cc2)NC(=O)[C@H]2Cc3ccccc3CN2)CC1
- Stimulation [1]: 68%
- EC50 [2]: 2100 nM

Compound: O=C(N[C@H](Cc1ccc(Cl)cc1)C(=O)N1CCC(Cn2cncn2)(C2CCCCC2)CC1)[C@H]1Cc2ccccc2CN1
- EC50 [4]: > 10000 nM
- Stimulation [1]: 100%
- EC50 [5]: 7.6 nM
- EC50 [6]: 2700 nM

Compound: O=C(Nc1ccccc1N1CCN(C(=O)[C@@H](Cc2ccc(Cl)cc2)NC(=O)[C@H]2Cc3ccccc3CN2)CC1)c1cccnc1
- Stimulation [1]: 83%
- EC50 [2]: 1100 nM

Compound: O=C(N[C@H](Cc1ccc(Cl)cc1)C(=O)N1CCN(c2ccccc2NS(=O)(=O)C(F)(F)F)CC1)[C@H]1Cc2ccccc2CN1
- Stimulation [1]: 34%
- EC50 [2]: 4400 nM

Compound: CC(=O)Nc1ccccc1N1CCN(C(=O)[C@@H](Cc2ccc(Cl)cc2)NC(=O)[C@H]2Cc3ccccc3CN2)CC1
- Stimulation [1]: 64%
- EC50 [2]: 1900 nM

Compound: CN(C)C(=O)Nc1ccccc1N1CCN(C(=O)[C@@H](Cc2ccc(Cl)cc2)NC(=O)[C@H]2Cc3ccccc3CN2)CC1
- Fold stimulation [3]: 7%

Compound: COC(=O)C(=O)Nc1ccccc1N1CCN(C(=O)[C@@H](Cc2ccc(Cl)cc2)NC(=O)[C@H]2Cc3ccccc3CN2)CC1
- Stimulation [1]: 55%
- EC50 [2]: 1600 nM

Now from value to compound:

- Stimulation [1]: 100%
- EC50 [2]: 1000 nM
Compound: CCC(C)N(Cc1ccccc1N1CCN(C(=O)[C@@H](Cc2ccc(Cl)cc2)NC(=O)[C@H]2Cc3ccccc3CN2)CC1)S(C)(=O)=O (stereo partly drawn)

- Stimulation [1]: 100%
- EC50 [2]: 380 nM
Compound: CC(C)CN(Cc1ccccc1N1CCN(C(=O)[C@@H](Cc2ccc(Cl)cc2)NC(=O)[C@H]2Cc3ccccc3CN2)CC1)S(C)(=O)=O

- Stimulation [1]: 100%
- EC50 [2]: 680 nM
Compound: O=C(N[C@H](Cc1ccc(Cl)cc1)C(=O)N1CCN(c2ccc(C(F)(F)F)cc2Cn2cncn2)CC1)[C@H]1Cc2ccccc2CN1

- Stimulation [1]: 100%
- EC50 [2]: 170 nM
Compound: O=C(N[C@H](Cc1ccc(Cl)cc1)C(=O)N1CCN(c2c(Cn3cncn3)ccc3ccccc23)CC1)[C@H]1Cc2ccccc2CN1

- Stimulation [1]: 100%
- EC50 [2]: 190 nM
Compound: CS(=O)(=O)N1CC2(CCN(C(=O)[C@@H](Cc3ccc(Cl)cc3)NC(=O)[C@H]3Cc4ccccc4CN3)CC2)c2ccccc21

- Stimulation [1]: 100%
- EC50 [2]: 110 nM
Compound: COc1ccc(Cn2cncn2)c(N2CCN(C(=O)[C@@H](Cc3ccc(Cl)cc3)NC(=O)[C@H]3Cc4ccccc4CN3)CC2)c1

- Stimulation [1]: 100%
- EC50 [2]: 690 nM
Compound: CCN(Cc1ccccc1N1CCN(C(=O)[C@@H](Cc2ccc(Cl)cc2)NC(=O)[C@H]2Cc3ccccc3CN2)CC1)S(C)(=O)=O

- Stimulation [1]: 34%
- EC50 [2]: 600 nM
Compound: COCC(=O)Nc1ccccc1N1CCN(C(=O)[C@@H](Cc2ccc(Cl)cc2)NC(=O)[C@H]2Cc3ccccc3CN2)CC1

- Stimulation [1]: 70%
- EC50 [2]: 470 nM
Compound: O=C(N[C@H](Cc1ccc(Cl)cc1)C(=O)N1CCN(c2cccc(Cl)c2Cn2cncn2)CC1)[C@H]1Cc2ccccc2CN1

- EC50 [4]: > 10000 nM
- EC50 [7]: > 3000 nM
- Stimulation [1]: 100%
- EC50 [2]: 24 nM
- EC50 [5]: 38 nM
- EC50 [6]: > 3000 nM
- EC50 [8]: > 3000 nM
Compound: O=C(N[C@H](Cc1ccc(Cl)cc1)C(=O)N1CCN(c2ccccc2Cn2cnnc2)CC1)[C@H]1Cc2ccccc2CN1

- EC50 [4]: > 10000 nM
- EC50 [7]: > 3000 nM
- Stimulation [1]: 100%
- EC50 [2]: 80 nM
- EC50 [5]: 59 nM
- EC50 [6]: > 3000 nM
- EC50 [8]: > 3000 nM
Compound: O=C(N[C@H](Cc1ccc(Cl)cc1)C(=O)N1CCN(c2ccccc2Cn2cncn2)CC1)[C@H]1Cc2ccccc2CN1

- Stimulation [1]: 100%
- EC50 [2]: 380 nM
Compound: CS(=O)(=O)Nc1ccccc1N1CCN(C(=O)[C@@H](Cc2ccc(Cl)cc2)NC(=O)[C@H]2Cc3ccccc3CN2)CC1

- Stimulation [1]: 85%
- EC50 [2]: 440 nM
Compound: CC(C)S(=O)(=O)Nc1ccccc1N1CCN(C(=O)[C@@H](Cc2ccc(Cl)cc2)NC(=O)[C@H]2Cc3ccccc3CN2)CC1

- Stimulation [1]: 100%
- EC50 [2]: 520 nM
Compound: CN(c1ccccc1N1CCN(C(=O)[C@@H](Cc2ccc(Cl)cc2)NC(=O)[C@H]2Cc3ccccc3CN2)CC1)S(C)(=O)=O

- Stimulation [1]: 62%
- EC50 [2]: 1000 nM
Compound: O=C(NCc1ccccc1)Nc1ccccc1N1CCN(C(=O)[C@@H](Cc2ccc(Cl)cc2)NC(=O)[C@H]2Cc3ccccc3CN2)CC1

- Stimulation [1]: 24%
- EC50 [2]: 650 nM
Compound: CCOC(=O)NC(=O)Nc1ccccc1N1CCN(C(=O)[C@@H](Cc2ccc(Cl)cc2)NC(=O)[C@H]2Cc3ccccc3CN2)CC1
